Measurements: patent US12527794B2, “Compositions, formulations, and methods for hair treatment” (Oddity Labs, LLC, priority 2021, dated 2026)

Tested on: human hair follicle dermal papilla cells (hFDPC)
Experiment: Human follicle dermal papilla cell (hFDPC) proliferation, cell viability assay
Type: cell-based
Conditions: hFDPCs supplemented with BIO, BMP-2 and FGFβ
Procedure: The ability of a compound or salt of the present disclosure to increase proliferation of human hair follicle dermal papilla cells (hFDPC) was tested using a cell viability assay, such as the Promega CellTiter-Glo® Luminescent Cell Viability Assay, MTT cell proliferation assay (ATCC® 30-1010K) or cell counting. […] In Table 8, A represents less than 20% of increased proliferation of hFDPCs, B represents 20-40%, and C represents larger than 40% of increased proliferation of hFDPCs. For this assay, hFDPCs were cultured on tissue culture-treated plastic and supplemented with 6-bromoindirubin-39-Oxime (BIO), recombinant bone morphogenetic protein-2 (BMP-2), and basic fibroblast growth factor (FGFβ), whose combination was previously found to preserve in situ dermal papilla gene signatures.

Row | SMILES | Percent Increase Proliferation of hFDPCs (%)
1 | CCCCN1CCc2cc(/C=C3\C(=O)NC(=O)N(C)C3=O)ccc21 [Compound I-12, 2,4,6(1H,3H,5H)-Pyrimidinetrione, 5-[(1-butyl-2,3-dihydro-1H-indol-5-yl)methylene]-1-methyl-] | B (B represents 20-40%)
2 | C=CCc1cc(/C=C2\C(=O)NC(=S)N(C)C2=O)cc(OC)c1OCC [Compound I-10, 4,6(1H,5H)-Pyrimidinedione, 5-[[4-ethoxy-3-methoxy-5-(2-propen-1-yl)phenyl]methylene]dihydro-1-methyl-2-thioxo-] | A (A represents less than 20% of increased proliferation of hFDPCs)
3 | C=CCc1cc(C=C2C(=O)NC(=S)NC2=O)cc(OCC)c1O [Compound I-8, 4,6(1H,5H)-Pyrimidinedione, 5-[[3-ethoxy-4-hydroxy-5-(2-propen-1-yl)phenyl]methylene]dihydro-2-thioxo-] | B (B represents 20-40%)
4 | C=CCOc1ccc(/C=C2/C(=O)NC(=O)N(CC=C)C2=O)cc1OC [Compound I-7, 2,4,6(1H,3H,5H)-Pyrimidinetrione, 5-[[3-methoxy-4-(2-propen-1-yloxy)phenyl]methylene]-1-(2-propen-1-yl)-] | A (A represents less than 20% of increased proliferation of hFDPCs)
5 | C=CCc1cc(/C=C2\C(=O)NC(=O)N(c3cc(C)cc(C)c3)C2=O)cc(OC)c1O [Compound I-3, 2,4,6(1H,3H,5H)-Pyrimidinetrione, 1-(3,5-dimethylphenyl)-5-[[4-hydroxy-3-methoxy-5-(2-propen-1-yl)phenyl]methylene]-] | A (A represents less than 20% of increased proliferation of hFDPCs)
6 | CN1C(=O)NC(=O)/C(=C/c2cnc(N(C)C)nc2)C1=O [Compound I-13, 2,4,6(1H,3H,5H)-Pyrimidinetrione, 5-[[2-(dimethylamino)-5-pyrimidinyl]methylene]-1-methyl-] | A (A represents less than 20% of increased proliferation of hFDPCs)
7 | C=CCc1cc(/C=C2\C(=O)NC(=O)N(c3ccc(C(C)C)cc3)C2=O)cc(OC)c1O [Compound I-1, 2,4,6(1H,3H,5H)-Pyrimidinetrione, 5-[[4-hydroxy-3-methoxy-5-(2-propen-1-yl)phenyl]methylene]-1-[4-(1-methylethyl)phenyl]-] | A (A represents less than 20% of increased proliferation of hFDPCs)
8 | O=C(O)CC1SC(NN=Cc2ccc(OS(=O)(=O)c3ccc([N+](=O)[O-])cc3)cc2)=NC1=O (stereo not shown) [VI-6, 5-Thiazoleacetic acid, 4,5-dihydro-2-[2-[[4-[[(4-nitrophenyl)sulfonyl]oxy]phenyl]methylene] hydrazinyl]-4-oxo-] | A (A represents less than 20% of increased proliferation of hFDPCs)
9 | Cc1cccc(Cn2cnc(NC(=O)c3cc(-c4cccnc4)nc4ccc(C)cc34)n2)c1 [III-2, 4-Quinolinecarboxamide, 6-methyl-N-[1-[(3-methylphenyl)methyl]-1H-1,2,4-triazol-3-yl]-2-(3-pyridinyl)-] | A (A represents less than 20% of increased proliferation of hFDPCs)
10 | C=CCc1cc(/C=C2\C(=O)NC(=O)N(c3ccc(C)c(C)c3)C2=O)cc(OC)c1O [Compound I-4, 2,4,6(1H,3H,5H)-Pyrimidinetrione, 1-(3,4-dimethylphenyl)-5-[[4-hydroxy-3-methoxy-5-(2-propen-1-yl)phenyl]methylene]] | A (A represents less than 20% of increased proliferation of hFDPCs)
11 | CN1C(=O)NC(=O)/C(=C\c2cccc(OCC(=O)O)c2)C1=O [Compound I-14, Acetic acid, 2-[3-[(tetrahydro-1-methyl-2,4,6-trioxo-5(2H)-pyrimidinylidene)methyl]phenoxy]-] | A (A represents less than 20% of increased proliferation of hFDPCs)
12 | C=CCc1cc(/C=C2\C(=O)NC(=O)N(c3cc(C)cc(C)c3)C2=O)cc(OCC)c1O [Compound I-2, 2,4,6(1H,3H,5H)-Pyrimidinetrione, 1-(3,5-dimethylphenyl)-5-[[3-ethoxy-4-hydroxy-5-(2-propen-1-yl)phenyl]methylene]-] | B (B represents 20-40%)
13 | CCC(C)Cc1c(C)sc2[nH]c(SCc3cc(=O)oc4cc(O)ccc34)nc(=O)c12 (stereo not shown) [IV-4, Thieno[2,3-d]pyrimidin-4(1H)-one, 2-[[(7-hydroxy-2-oxo-2H-1-benzopyran-4-yl)methyl]thio]-6-methyl-5-(2-methylbutyl)-] | A (A represents less than 20% of increased proliferation of hFDPCs)
14 | C=CCc1cc(/C=C2\C(=O)NC(=O)N(C)C2=O)cc(OC)c1O [Compound I-16, 2,4,6(1H,3H,5H)-Pyrimidinetrione, 5-[[4-hydroxy-3-methoxy-5-(2-propen-1-yl)phenyl]methylene]-1-methyl-] | A (A represents less than 20% of increased proliferation of hFDPCs)
15 | COc1cc(/C=C2\C(=O)NC(=O)N(Cc3ccccc3)C2=O)cc(OC)c1O [Compound I-5, 2,4,6(1H,3H,5H)-Pyrimidinetrione, 5-[(4-hydroxy-3,5-dimethoxyphenyl)methylene]-1-(phenylmethyl)-] | B (B represents 20-40%)
16 | C=CCN1C(=O)NC(=O)/C(=C\c2ccc(OC)cc2OC)C1=O [Compound I-6, 2,4,6(1H,3H,5H)-Pyrimidinetrione, 5-[(2,4-dimethoxyphenyl)methylene]-1-(2-propen-1-yl)-] | A (A represents less than 20% of increased proliferation of hFDPCs)
17 | COc1ccc(CC(=O)Nc2sc3c(c2C(=O)Nc2cccc([N+](=O)[O-])c2)CCC(C)C3)cc1 (stereo not shown) [VII-22, Benzo[b]thiophene-3-carboxamide, 4,5,6,7-tetrahydro-2-[[2-(4-methoxyphenyl)acetyl]amino]-6-methyl-N-(3-nitrophenyl)-] | A (A represents less than 20% of increased proliferation of hFDPCs)
18 | CC(C)(C)Nc1nnc(SCc2cc(=O)oc3cc(O)ccc23)s1 [IV-1, 2H-1-Benzopyran-2-one, 4-[[[5-[(1,1-dimethylethyl)amino]-1,3,4-thiadiazol-2-yl]thio]methyl]-7-hydroxy-] | B (B represents 20-40%)
19 | O=C1CNCc2[nH]c3ccccc3c2N1c1ccccc1 [VII-10, 1,4-Diazepino[6,5-b] indol-2(1H)-one, 3,4,5,6-tetrahydro-1-phenyl-] | B (B represents 20-40%)
20 | C=CCc1cc(C=C2C(=O)NC(=S)NC2=O)cc(OC)c1O [Compound I-9, 4,6(1H,5H)-Pyrimidinedione, dihydro-5-[[4-hydroxy-3-methoxy-5-(2-propen-1-yl)phenyl]methylene]-2-thioxo-] | B (B represents 20-40%)
21 | CCOCCc1nnc(NC(=O)c2cc(-c3ccccc3)nc3ccccc23)s1 [III-4, 4-Quinolinecarboxamide, N-[5-(2-ethoxyethyl)-1,3,4-thiadiazol-2-yl]-2-phenyl-] | B (B represents 20-40%)
22 | COc1ccc(/C=C2\C(=O)NC(=O)N(C)C2=O)c(OC)c1 [Compound I-11, 2,4,6(1H,3H,5H)-Pyrimidinetrione, 5-[(2,4-dimethoxyphenyl)methylene]-1-methyl-, (5E)-] | A (A represents less than 20% of increased proliferation of hFDPCs)
